The results in this text go back to patent US20120045505A1, “FIXED DOSE DRUG COMBINATION FORMULATIONS” (Dr. Reddy's Laboratories, Inc., priority 2004, published 2012).

Series [1] in a line: Storage stability of capsules in closed HDPE bottles at 40° C. and 75% relative humidity for 6 months: drug content and drug-related impurities. It counts as physicochemical. On the procedure: Capsules prepared above are stored in closed high-density polyethylene (HDPE) bottles at 40° C. and 75% relative humidity for 6 months, and are analyzed for drug content and the levels of drug-related impurity formation.
Capsules prepared above are stored in closed HDPE bottles at 40° C. and 75% relative humidity for 6 months, and are analyzed for drug content and the levels of drug-related impurities.

Series [2] can be described thus: In vitro dissolution of capsules, USP Type 1 (Basket) apparatus, 900 mL medium, 100 rpm. Format: physicochemical. Here is the method: Dissolution profiles for drugs in capsules prepared above are determined in various media using the USP procedure and the following conditions: Type 1 (Basket) apparatus; 900 mL medium; and 100 rpm rotation. Values in the following tables are cumulative percentages of the specified drug that dissolves in the specified times. […]

Setting [3] is: Example 3 capsule, 6 Months at 40° C. and 75% relative humidity, closed HDPE bottles.
Where [4] appears, read: Example 4 capsule, 6 Months at 40° C. and 75% relative humidity, closed HDPE bottles.
[5] abbreviates: Example 4 capsule, 6 Months, 40° C./75% RH.
[6] abbreviates: Example 4 capsule, 0.1N HCl, 30 Minutes.
[7] abbreviates: Example 4 capsule, 0.1N HCl, 60 Minutes.
[8] abbreviates: Example 4 capsule, pH 2.1 SGF, 30 Minutes.
[9] abbreviates: Example 4 capsule, pH 2.1 SGF, 60 Minutes.
Setting [10] is: Example 4 capsule, pH 4.5 Acetate buffer USP, 30 Minutes.
The mark [11] stands for this setting: Example 4 capsule, pH 4.5 Acetate buffer USP, 60 Minutes.
[12] abbreviates: Example 4 capsule, pH 6.8 Phosphate buffer USP, 30 Minutes.
[13] abbreviates: Example 4 capsule, pH 6.8 Phosphate buffer USP, 60 Minutes.
Where [14] appears, read: Example 3 capsule, 6 Months, 40° C./75% RH.
Where [15] appears, read: Example 4 capsule, 6 Months, 40° C./75% RH, capsule containing hydrochlorothiazide.
The mark [16] stands for this setting: Example 4 capsule, Initial, capsule containing hydrochlorothiazide.
Where [17] appears, read: Example 3 capsule, 0.1N HCl, 30 Minutes.
Setting [18] is: Example 3 capsule, 0.1N HCl, 60 Minutes.
[19] abbreviates: Example 3 capsule, pH 2.1 SGF, 30 Minutes.
Where [20] appears, read: Example 3 capsule, pH 2.1 SGF, 60 Minutes.
[21] abbreviates: Example 3 capsule, pH 4.5 Acetate buffer USP, 30 Minutes.
[22] abbreviates: Example 3 capsule, pH 4.5 Acetate buffer USP, 60 Minutes.

SMILES strings stand for the structures.

Turning to `CC(C)NCC(O)COc1ccc(CC(N)=O)cc1` (stereo not drawn) [Atenolol], the “Assay (drug content)” value in series [1] (setting [3]) is recorded as 98.7 % of label content; in series [1] (Example 3 capsule, Initial), 100.3 % of label content.
With `NS(=O)(=O)c1cc2c(cc1Cl)NCNS2(=O)=O` [Hydrochlorothiazide], the “Assay (drug content)” value in series [1] (setting [4]) is given as 99.3 % of label content; in series [1] (Example 4 capsule, Initial) it was 99.5 % of label content. Moreover, the “Impurity: CTZ” value in series [1] (setting [5]) is given as 0.04 % of label content; in series [1] (Example 4 capsule, Initial), 0.04 % of label content. Moreover, the “Impurity: DSA” value in series [1] (setting [5]) is listed as 0.07 % of label content; in series [1] (Example 4 capsule, Initial), 0.04 % of label content. The “cumulative percentage of drug dissolved” value in series [2] (setting [6]) worked out at 100%; in series [2] (setting [7]), 100%; in series [2] (setting [8]), 88%; in series [2] (setting [9]), 98%; in series [2] (setting [10]), 91%; in series [2] (setting [11]), 97%. Besides, the “cumulative percentage of drug dissolved” value in series [2] (setting [12]) is given as 82%; in series [2] (setting [13]) it was 85%.
For `NCCCC[C@H](N[C@@H](CCc1ccccc1)C(=O)O)C(=O)N1CCC[C@H]1C(=O)O` [Lisinopril], the “Assay (drug content)” value in series [1] (setting [3]) is 98.7 % of label content; in series [1] (Example 3 capsule, Initial), 98.5 % of label content; in series [1] (setting [4]), 99.0 % of label content; in series [1] (Example 4 capsule, Initial) it was 97.8 % of label content. In addition, the “Impurity: RSS isomer” value is on record as 0.12 % of label content in series [1] (setting [14]); 0.09 % of label content in series [1] (Example 3 capsule, Initial); 0.09 % of label content in series [1] (setting [15]); 0.09 % of label content in series [1] (setting [16]). For the same compound, the “Impurity: SSS DKP” value is reported as 0.009 % of label content in series [1] (setting [14]), 0.33 % of label content in series [1] (setting [15]) and 0.05 % of label content in series [1] (setting [16]). The “cumulative percentage of drug dissolved” value came out at 97% in series [2] (setting [17]); 96% in series [2] (setting [18]); 102% in series [2] (setting [19]); 105% in series [2] (setting [20]); 97% in series [2] (setting [21]); 96% in series [2] (setting [22]). In addition, the “cumulative percentage of drug dissolved” value in series [2] (Example 3 capsule, pH 6.5 SIF, 30 Minutes) is on record as 92%; in series [2] (Example 3 capsule, pH 6.5 SIF, 60 Minutes), 97%; in series [2] (Example 3 capsule, pH 6.8 Phosphate buffer USP, 30 Minutes), 96%; in series [2] (Example 3 capsule, pH 6.8 Phosphate buffer USP, 60 Minutes), 96%; in series [2] (setting [6]) it was 100%; in series [2] (setting [7]) it was 100%. The “cumulative percentage of drug dissolved” value came out at 95% in series [2] (setting [8]); 98% in series [2] (setting [9]); 100% in series [2] (setting [10]); 102% in series [2] (setting [11]); 94% in series [2] (setting [12]); 95% in series [2] (setting [13]).
Turning to `CC(=O)Oc1ccccc1C(=O)O` [Aspirin], the “Assay (drug content)” value in series [1] (setting [3]) is reported as 101.5 % of label content; in series [1] (Example 3 capsule, Initial), 100.3 % of label content; in series [1] (setting [4]) it was 101.3 % of label content; in series [1] (Example 4 capsule, Initial), 101.2 % of label content. For the same compound, the “Impurity: Salicylic acid” value in series [1] (setting [14]) was 0.68 % of label content; in series [1] (Example 3 capsule, Initial), 0.17 % of label content; in series [1] (setting [15]) it was 0.31 % of label content; in series [1] (setting [16]), 0.13 % of label content. The “cumulative percentage of drug dissolved” value in series [2] (Example 3 capsule, 0.01N HCl, 30 Minutes) stood at 87%; in series [2] (Example 3 capsule, 0.01N HCl, 60 Minutes), 89%; in series [2] (setting [17]), 96%; in series [2] (setting [18]), 98%; in series [2] (setting [19]) it was 99%; in series [2] (setting [20]) it was 100%. For the same compound, the “cumulative percentage of drug dissolved” value in series [2] (setting [21]) was 88%; in series [2] (setting [22]) it was 89%; in series [2] (Example 4 capsule, 0.01N HCl, 30 Minutes) it was 87%; in series [2] (Example 4 capsule, 0.01N HCl, 60 Minutes), 89%; in series [2] (setting [6]), 96%; in series [2] (setting [7]) it was 98%. Moreover, the “cumulative percentage of drug dissolved” value in series [2] (setting [8]) was 99%; in series [2] (setting [9]), 100%; in series [2] (setting [10]), 88%; in series [2] (setting [11]), 89%.
